From PMC11369193, “Structural insights into human ABCD3-mediated peroxisomal acyl-CoA translocation” (Cell Discovery, 2024) come the findings set out here.

In data set [1] the target is T1, chABCD3.
T1 construct: gene ABCD3; C. elegans PMP2 residues 1-50 fused to human ABCD3 residues 51-659, N-terminal FLAG tag, HEK293F, homodimer; PMP2 segment invisible in structures; with Peroxisomal Membrane Protein related (Caenorhabditis elegans)
Briefly: stimulation of ATPase activity, malachite green phosphate assay; cryo-EM structure […] Å (digitonin). It is filed as biochemical, Homo sapiens. Conditions: 2 mM ATP; LMNG + CHS; 20 mM Tris-HCl pH 7.5, 2 mM MgCl2, 37 °C; activation of ATPase; two sites per dimer.

The target of data set [2] is chimeric ABCD3 (chABCD3): N-terminal 50 residues of C. elegans PMP2 fused to the core domains of human ABCD3, wild type (Caenorhabditis elegans | human) (UniProt P28288). The data set can be described thus: cryo-EM structure; purified chABCD3 (~10 mg/mL) in digitonin with 0.5 mM phytanoyl-CoA; C2 symmetry; inward-facing conformation; 2.9 Å.
Data set [3] concerns T1, chABCD3. Briefly: ATPase activity, malachite green phosphate assay; cryo-EM structure […] Å (GDN). It is filed as biochemical, Homo sapiens. Conditions: LMNG + CHS detergent; 20 mM Tris-HCl pH 7.5, 2 mM MgCl2, 37 °C; no acyl-CoA (basal); structure with 10 mM ATP/Mg2+.
The subject of data set [4] is T1, chABCD3. The data set can be described thus: ATPase activity, malachite green phosphate assay. It is filed as biochemical, Homo sapiens. Conditions: LMNG + CHS detergent; 20 mM Tris-HCl pH 7.5, 2 mM MgCl2, 37 °C; no acyl-CoA (basal).
Substrate in data set [5]: Nc1ncnc2c1ncn2[C@@H]1O[C@H](COP(=O)(O)OP(=O)(O)OP(=O)(O)O)[C@@H](O)[C@H]1O
Briefly: ATPase activity, malachite green phosphate assay. The following applies: LMNG + CHS detergent, 20 mM Tris-HCl pH 7.5, 2 mM MgCl2, 37 °C, no acyl-CoA (basal). Format: biochemical, Homo sapiens.

As to `CC(C)CCCC(C)CCCC(C)CCCC(C)CC(=O)SCCNC(=O)CCNC(=O)[C@H](O)C(C)(C)COP(=O)(O)OP(=O)(O)OC[C@H]1O[C@@H](n2cnc3c(N)ncnc32)[C@H](O)[C@@H]1OP(=O)(O)O` (some centres unmarked) [phytanoyl-CoA], in data set [1], the EC50 was about 0.46 µM. For the molecule “chimeric ABCD3 (chABCD3): N-terminal 50 residues of C. elegans PMP2 fused to the core domains of human ABCD3, wild type (from UniProt P28288 51-659)”, the stoichiometry N in data set [2] amounted to 2. Regarding `Nc1ncnc2c1ncn2[C@@H]1O[C@H](COP(=O)(O)OP(=O)(O)OP(=O)(O)O)[C@@H](O)[C@H]1O` [ATP], the Michaelis-Menten constant (Km) amounted to 190 µM in data set [3] and 160 µM in data set [4].

B1: hABCD3 (Homo sapiens) (protein)
chain: MAAFSKYLTARNSSLAGAAFLLLCLLHKRRRALGLHGKKSGKPPLQNNEKEGKKERAVVDKVFFSRLIQILKIMVPRTFCKETGYLVLIAVMLVSRTYCDVWMIQNGTLIESGIIGRSRKDFKRYLLNFIAAMPLISLVNNFLKYGLNELKLCFRVRLTKYLYEEYLQAFTYYKMGNLDNRIANPDQLLTQDVEKFCNSVVDLYSNLSKPFLDIVLYIFKLTSAIGAQGPASMMAYLVVSGLFLTRLRRPIGKMTITEQKYEGEYRYVNSRLITNSEEIAFYNGNKREKQTVHSVFRKLVEHLHNFILFRFSMGFIDSIIAKYLATVVGYLVVSRPFLDLSHPRHLKSTHSELLEDYYQSGRMLLRMSQALGRIVLAGREMTRLAGFTARITELMQVLKDLNHGKYERTMVSQQEKGIEGVQVIPLIPGAGEIIIADNIIKFDHVPLATPNGDVLIRDLNFEVRSGANVLICGPNGCGKSSLFRVLGELWPLFGGRLTKPERGKLFYVPQRPYMTLGTLRDQVIYPDGREDQKRKGISDLVLKEYLDNVQLGHILEREGGWDSVQDWMDVLSGGEKQRMAMARLFYHKPQFAILDECTSAVSVDVEGYIYSHCRKVGITLFTVSHRKSLWKHHEYYLHMDGRGNYEFKQITEDTVEFGS
notes: full-length (659 residues), codon-optimized, N-terminal FLAG tag, expressed in HEK293F; LMNG + CHS detergent
Regarding B1, the Michaelis-Menten constant (Km) in data set [5] is 240 µM.
